These results are taken from US9622995B2, “Treatment of disorders associated with G protein-coupled receptor 35 (GPR35)” (TEMPLE UNIVERSITY—OF THE COMMONWEALTH SYSTEM OF HIGHER …, priority 2009, dated 2017).

A short description of assay [1]: Acetic acid writhing (abdominal constriction) test in mice. The note with it: for mean number of writhes: male Swiss Webster mice, 0.6% acetic acid i.p., saline control 21±1. A general note: An intraperitoneal irritant provokes the stretching counted in writhing tests.
Assay [2] addresses T1, CB1 cannabinoid receptors (Homo sapiens, UniProt P21554).
T1 construct: expressed in transfected cells; host or cells: U2OS cells
Put plainly: βarr2-GFP redistribution in U2OS cells co-expressing CB1 (specificity control). Format: cell-based. The following applies: U2OS cells co-expressing β-arr2-GFP and CB1, 1 μM; data not shown.

The target in a further assay is T2, GPR55 receptors (Homo sapiens, UniProt Q9Y2T6).
T2 construct: expressed in transfected cells; host or cells: U2OS cells
Nature of the assay: βarr2-GFP redistribution in U2OS cells co-expressing GPR55 (specificity control). Format: cell-based. The note with it: U2OS cells co-expressing βarr2-GFP and GPR55, 1 μM; data not shown.

Assay [3] deals with T3, vasopressin receptor (V2R) (Homo sapiens, UniProt P30518).
T3 construct: expressed in transfected cells; host or cells: U2OS cells
Nature of the assay: β-arrestin2-GFP redistribution in U2OS cells overexpressing V2R (specificity control). Format: cell-based. The following applies: U2OS cells with β-arrestin2-GFP and overexpressed V2R, 1 μM. The method, then:
(§1) U20S cells expressing HA-GPR35a/βarr2-GFP (also known as UGPR35β cells) were plated in a 24-well plate onto coverslips that were coated with poly-D-lysine (0.02 mg/ml; Sigma-Aldrich, St. Louis, Mo., USA) for 1 hour. Cells were maintained at 37° C., 5% CO2 until ready for experiment (90% confluent). Cells were washed once with Hanks' balanced salt solution (HBSS, Cellgro, Mediatech, Inc, Manassas, Va., USA) comprising CaCl2 0.14 g/L, KCl 0.4 g/L, KH2PO4 0.06 g/L, MgSO4 0.097 g/L, NaCl 8 g/L, Na2HPO4 0.047 g/L, NaHCO3 0.35 g/L, and D-glucose 1.0 g/L. For receptor activation, agonist-evoked redistribution of βarr2-GFP was measured by applying the drug for 40 minutes. For measuring the effects of antagonist, agonist and antagonist were co-applied.
(§2) Cells were then fixed with 4% paraformaldehyde for 20 minutes at room temperature, followed by three washes with HBSS.
In that panel, fluorescence was observed close to the cell membrane. As a control for drug specificity, 1 μM pamoic acid was added to a U2OS cell line containing β-arrestin2-GFP and overexpressed vasopressin receptor (V2R).

Assay [4] can be described thus: Middle cerebral artery occlusion with reperfusion (MCAO/R) stroke model. Format: in vivo. The following applies: male mice. Here is the method: Several animal-based models for stroke have been proposed and validated, such as the artery occlusion and reperfusion model in male mice described by Zhang and coworkers (Microvasc. Res., 2009, 78(1):86-94). In this model, the animals are submitted to middle cerebral artery occlusion for a period of 60 minutes and then reperfusion is allowed. Cerebral infarction volume is measured by analyzing sections of the animal brain stained with triphenyltetrazolium chloride. Triphenyltetrazolium chloride is believed to be reduced to red formazan by mitochondrial enzymes, specifically succinate dehydrogenase (Lippold, 1982, Histochemistry 76:381-405). […] Therefore, TTC staining is extensively used in animal stroke experiments for quantitatively delineating the infarct volume (Memezawa et al., 1992, Exp. Brain Res. 89:67-78.; Hasegawa et al., 1995, J. Cereb. Blood Flow Metab. 15:179-187; Kuge et al., 1995, Stroke 26:1655-1658; Fuhai et al., 1997, J. Cereb. Blood Flow Metab. 17:1132-1135). […]
Cerebral infarction volume was measured 24 hours after MCAO/R. The animals were euthanized with an overdose of pentobarbital (200 mg/kg i.p.) 24 hours after MCAO and the brains were removed, and chilled on ice for 10 min to slightly harden the tissue. […]

The target in another assay is T4, mouse GPR35 (Mus musculus, UniProt Q9ES90).
T4 construct: host or cells: CHO cells
The note with it: CHO cells co-transfected with mouse GPR35, Aequorin readout; Wang et al. 2006; read-out: EC50 for receptor activation; cited from earlier work.

Another assay addresses GPR35a (Homo sapiens, UniProt Q9HC97, S294R). Put plainly: β-arrestin2-GFP redistribution/aggregation in UGPR35β cells. The following applies: mean (95% confidence interval in brackets in the text), read-out: EC50 for β-arrestin2 aggregation. Type of assay: cell-based. Also on record: expressed in transfected cells.
Source text: This cellular assay utilizes the intracellular β-arrestin protein as a reporter of receptor activity. […] Upon agonist-mediated GPCR activation, β-arrestins rapidly redistribute en masse to ligand-activated plasma membrane receptors (on the other hand, β-arrestins remain in the cytosol upon antagonist binding to the receptor). Activated GPCR/β-arrestin complexes will concentrate in clathrin-coated pits and/or internal vesicles where most GPCRs normally undergo internalization. At this juncture, the β-arrestin either (i) dissociates and returns to the cytoplasm, or (ii) further redistributes with the receptor into an intracellular endosomal vesicle, depending on the receptor type. It is the agonist-induced redistribution of β-arrestin-GFP into progressively smaller compartments (cytosolic compartment>plasma membrane>coated pit>endosomal compartment) that enables imaging of receptor activation.
This cell line is herein referred to as UGPR35β. Selected cells were maintained at 200 μg/ml G418® and 100 μg/ml Zeocin® at 37° C. and 5% CO2.
as §1, §2
βarr2-GFP aggregates were identified by a wavelet-based, Microsoft Windows-compatible computer program written in the MatLab programming environment. A program algorithm extracts from two dimensional images those pixels that generate objects of interest that fall within a predetermined range of sizes and intensities and that are embedded among widely varying local backgrounds (L. Barak, available from the Duke University GPCR Assay Bank). Concentration-effect curves for agonist-mediated receptor activation were analyzed by non-linear regression techniques using GraphPad Prism 4.0 software (GraphPad) and data were fitted to sigmoidal dose-response curves to obtain EC50 or IC50 values. Statistical analysis was performed using one-way analysis of variance (ANOVA) followed by Dunnett's post-test or two-tailed unpaired student t test. P values of <0.05 are considered significant.
A prototypical U2OS osteosarcoma cell line that permanently expresses β-arrestin-GFP and N-terminal triple HA-tagged human GPR35a was used to screen ligands for agonism or antagonism against the GPR35 receptor. […] Endogenous receptors are invisible to the assay because there are too few endogenous receptors of any type compared to the number of β-arrestin molecules in the cell to provide a measurable response.
Upon agonist-mediated GPCR activation, β-arrestins rapidly redistribute en masse to ligand-activated plasma membrane receptors, and then the activated GPCR/arrestin complexes concentrate in clathrincoated pits and/or internal vesicles.
Concentration response curves for β-arrestin2 aggregation were obtained for compounds of interest. For this study, UGPR35β cells were treated with different concentrations of a compound of interest and images of the cells (acquired in triplicate in three or more independent experiments) were analyzed for fluorescence.

In a further assay the target is T5, human GPR35 (Homo sapiens, UniProt Q9HC97).
T5 construct: host or cells: CHO cells
The following applies: CHO cells co-transfected with human GPR35, Aequorin readout; Wang et al. 2006; read-out: EC50 for receptor activation; cited from earlier work.

Another assay deals with T6, rat GPR35 (Rattus norvegicus, UniProt Q33BM1).
T6 construct: host or cells: CHO cells
The note with it: CHO cells co-transfected with rat GPR35, Aequorin readout; Wang et al. 2006; read-out: EC50 for receptor activation; cited from earlier work.

Another assay deals with GPR35 (Homo sapiens, UniProt Q9HC97, S294R). Put plainly: cell-based.

The EC50 is the concentration needed to bring the measured effect to its halfway point.

Sequence of GPR35 (Q9HC97 whole entry S294R): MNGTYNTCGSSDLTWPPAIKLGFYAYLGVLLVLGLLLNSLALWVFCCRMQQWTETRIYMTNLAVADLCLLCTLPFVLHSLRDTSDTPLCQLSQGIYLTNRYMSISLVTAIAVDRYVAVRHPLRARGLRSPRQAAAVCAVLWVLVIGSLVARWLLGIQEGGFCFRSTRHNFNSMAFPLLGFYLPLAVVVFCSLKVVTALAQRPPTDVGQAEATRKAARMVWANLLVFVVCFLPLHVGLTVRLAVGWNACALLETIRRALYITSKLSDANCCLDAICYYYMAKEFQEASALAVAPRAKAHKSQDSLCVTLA
Sequence of GPR35a (Q9HC97 whole entry S294R): as above
T5 sequence (Q9HC97 whole entry): as the sequence (Q9HC97 whole entry S294R) above, with R294S counted along it
T3 sequence (P30518 whole entry, species assumed): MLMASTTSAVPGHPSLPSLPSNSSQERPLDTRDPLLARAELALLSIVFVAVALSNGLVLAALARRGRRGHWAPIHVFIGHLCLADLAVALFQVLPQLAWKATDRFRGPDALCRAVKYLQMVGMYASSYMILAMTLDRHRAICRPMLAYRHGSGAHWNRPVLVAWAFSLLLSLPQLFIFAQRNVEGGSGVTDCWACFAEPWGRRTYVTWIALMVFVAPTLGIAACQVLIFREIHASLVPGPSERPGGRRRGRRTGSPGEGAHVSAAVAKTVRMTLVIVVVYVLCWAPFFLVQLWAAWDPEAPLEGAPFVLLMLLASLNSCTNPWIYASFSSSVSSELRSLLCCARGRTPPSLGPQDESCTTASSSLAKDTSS
T6 sequence (Q33BM1 1-306): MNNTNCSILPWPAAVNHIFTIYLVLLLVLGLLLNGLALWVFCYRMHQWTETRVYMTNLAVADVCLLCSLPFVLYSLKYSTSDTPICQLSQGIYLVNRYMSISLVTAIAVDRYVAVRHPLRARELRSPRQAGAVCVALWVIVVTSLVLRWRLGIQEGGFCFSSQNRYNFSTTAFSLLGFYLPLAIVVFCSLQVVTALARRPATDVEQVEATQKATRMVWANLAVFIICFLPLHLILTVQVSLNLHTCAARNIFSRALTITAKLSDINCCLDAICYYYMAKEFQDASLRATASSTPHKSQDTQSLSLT
T2 sequence (Q9Y2T6 whole entry): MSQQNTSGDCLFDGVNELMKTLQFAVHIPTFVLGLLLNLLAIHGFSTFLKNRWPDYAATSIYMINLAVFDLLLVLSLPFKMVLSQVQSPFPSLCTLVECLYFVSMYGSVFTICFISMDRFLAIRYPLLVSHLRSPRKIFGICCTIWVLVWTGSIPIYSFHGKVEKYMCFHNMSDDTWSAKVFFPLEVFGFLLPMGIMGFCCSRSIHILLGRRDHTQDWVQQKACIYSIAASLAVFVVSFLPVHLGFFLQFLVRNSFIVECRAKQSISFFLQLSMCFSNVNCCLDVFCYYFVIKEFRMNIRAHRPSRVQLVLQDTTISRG
T4 sequence (Q9ES90 whole entry): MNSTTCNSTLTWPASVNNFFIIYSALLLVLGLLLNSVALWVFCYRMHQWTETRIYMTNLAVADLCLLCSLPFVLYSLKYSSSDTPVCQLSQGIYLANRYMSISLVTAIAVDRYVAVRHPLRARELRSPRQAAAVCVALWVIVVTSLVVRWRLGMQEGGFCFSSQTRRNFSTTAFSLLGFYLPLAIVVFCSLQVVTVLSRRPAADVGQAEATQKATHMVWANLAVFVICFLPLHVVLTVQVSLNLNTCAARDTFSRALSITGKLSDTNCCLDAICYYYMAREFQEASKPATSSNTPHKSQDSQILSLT
T1 sequence (P21554 whole entry): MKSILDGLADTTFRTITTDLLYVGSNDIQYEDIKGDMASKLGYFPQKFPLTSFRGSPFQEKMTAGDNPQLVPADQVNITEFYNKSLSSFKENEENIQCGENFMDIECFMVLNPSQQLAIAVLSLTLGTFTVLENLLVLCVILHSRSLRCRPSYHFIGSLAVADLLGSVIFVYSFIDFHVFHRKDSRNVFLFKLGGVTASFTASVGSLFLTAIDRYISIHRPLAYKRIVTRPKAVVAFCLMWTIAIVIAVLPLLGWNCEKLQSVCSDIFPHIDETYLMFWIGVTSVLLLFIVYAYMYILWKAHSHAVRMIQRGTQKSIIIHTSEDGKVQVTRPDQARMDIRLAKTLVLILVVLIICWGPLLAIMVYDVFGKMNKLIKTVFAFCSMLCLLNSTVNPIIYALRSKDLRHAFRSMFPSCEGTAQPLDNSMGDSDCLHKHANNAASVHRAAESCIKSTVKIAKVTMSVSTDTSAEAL

`O=C(O)c1cc2ccccc2c(Cc2c(O)c(C(=O)O)cc3ccccc23)c1O` [Compound 1, 4-[(3-carboxy-2-hydroxynaphthalen-1-yl)methyl]-3-hydroxynaphthalene-2-carboxylic acid]: in [1] (mice, s.c., dose of 100 mg/kg), the “antinociceptive effect, in words” value is “essentially complete antinociception”. Moreover, in assay [1] (mice, s.c., given as disodium pamoate, 95% CL 28.3-90.3 mg/kg), the “subcutaneous dose causing 50% antinociception” value turned out to be 40.5 mg/kg. Besides, the βarr2-GFP response entry (in assay [2]; on GPR55 receptors) was “no response was observed” throughout. Further, the “change in β-arrestin2-GFP fluorescence distribution” value in [3] is given as “no change in fluorescence distribution was observed”.

In the case of `O=C(O)c1cc2ccccc2c(Cc2c(O)c(C(=O)O)cc3ccccc23)c1O` [disodium pamoate], the “mean number of writhes” value in [1] (25 mg/kg s.c.) is recorded as 14±2; in assay [1] (50 mg/kg s.c.), 11±2; in [1] (100 mg/kg s.c.), 0.4±0.2. Moreover, in assay [4] (given one hour prior to reperfusion, measured 24 hours after MCAO/R, control about 27%), the infarction percentage entry was “about 17%”. For the same compound, in [4] (versus untreated control), the “reduction in infarction percentage” value is “about 37%”.

Take `O=C(O)c1cc(=O)c2ccccc2[nH]1` [kynurenic acid, 2-carboxy-4-hydroxy-quinoline]: the half-maximal effective concentration (EC50) at mouse GPR35 was 11 µM; on GPR35a, 217 µM; at human GPR35, 40 µM; on rat GPR35 it was 7 µM.

As for `CN1CCCN=C1/C=C/c1cccs1` [pyrantel pamoate], the half-maximal effective concentration (EC50) on GPR35 was 88.7 nM.
